# Test results reported in patent US20230382926A1, “COMPOUNDS AND USES THEREOF” (The University of The West Indies, priority 2022, published 2023).
# What was measured:
# Assay in all cases: Rescue concentration, modified checkerboard MIC adjuvant assay
# Assay type in all cases: cell-based
# [1] = test system: Acinetobacter baumannii clinical isolate 9978; conditions: A. baumannii clinical isolate 9978
# In short: (§1)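 Each well receives bacteria at 10^6 CFU/ml in cation-adjusted Mueller Hinton Broth, a breakpoint concentration of antibiotic, and one step of a twofold compound series. After aerobic incubation at 35° C. for 24 h, growth is scored by eye; rescue concentration reduces MIC to breakpoint.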
# [2] = test system: Enterococcus faecalis ATCC 51299; conditions: E. faecalis ATCC 51299
# In short: as §1
# [3] = test system: Escherichia coli ATCC 35150; conditions: E. coli ATCC 35150
# In short: as §1
# [4] = test system: Klebsiella pneumoniae ATCC 49472; conditions: K. pneumoniae ATCC 49472
# In short: as §1
# [5] = test system: Klebsiella pneumoniae ATCC BAA-2814; conditions: K. pneumoniae ATCC BAA-2814
# In short: as §1
# [6] = test system: Pseudomonas aeruginosa MDR 5805; conditions: P. aeruginosa MDR 5805
# In short: as §1
# [7] = test system: Stenotrophomonas maltophilia MDR 7785; conditions: S. maltophilia MDR 7785
# In short: as §1
# [8] = test system: Streptococcus pneumoniae ATCC 49619; conditions: S. pneumoniae ATCC 49619
# [9] = Amox at susceptible breakpoint 8 μg mL^−1
# [10] = Cef at susceptible breakpoint 8 μg mL^−1
# [11] = Col at susceptible breakpoint 2 μg mL^−1
# [12] = Gen at susceptible breakpoint 4 μg mL^−1
# [13] = Imi at susceptible breakpoint 2 μg mL^−1
# [14] = Mero at susceptible breakpoint 2 μg mL^−1
# [15] = Pol B at susceptible breakpoint 2 μg mL^−1
# [16] = Amp at susceptible breakpoint 8 μg mL^−1
# [17] = Chl at susceptible breakpoint 8 μg mL^−1
# [18] = Dox at susceptible breakpoint 4 μg mL^−1
# [19] = Imi at susceptible breakpoint 1 μg mL^−1
# [20] = Col at susceptible breakpoint 8 μg mL^−1
# [21] = Ceph at susceptible breakpoint 8 μg mL^−1
smiles,measurement,setting,value
"Oc1ccc(C(c2c[nH]c3ncccc23)c2c[nH]c3ncccc23)cc1 [SP-7azaBIM 135, 4-(bis(1H-pyrrolo[2,3-b]pyridin-3-yl)methyl)phenol]","Rescue concentration, Amox (8)",[1]; [9],>127 µg/mL
same,"Rescue concentration, Cef (8)",[1]; [10],>128 µg/mL
same,"Rescue concentration, Col (2)",[1]; [11],>128 µg/mL
same,"Rescue concentration, Gen (4)",[1]; [12],>128 µg/mL
same,"Rescue concentration, Imi (2)",[1]; [13],>128 µg/mL
same,"Rescue concentration, Mero (2)",[1]; [14],>128 µg/mL
same,"Rescue concentration, Pol B (2)",[1]; [15],>128 µg/mL
same,"Rescue concentration, Amp (8)",[2]; [16],>128 µg/mL
same,"Rescue concentration, Chl (8)",[2]; [17],>128 µg/mL
same,"Rescue concentration, Dox (4)",[2]; [18],>128 µg/mL
same,"Rescue concentration, Ery (0.5)",[2]; Ery at susceptible breakpoint 0.5 μg mL^−1,>128 µg/mL
same,"Rescue concentration, Tri (8)",[2]; Tri at susceptible breakpoint 8 μg mL^−1,>128 µg/mL
same,"Rescue concentration, Van (4)",[2]; Van at susceptible breakpoint 4 μg mL^−1,>128 µg/mL
same,"Rescue concentration, Amp (8)",[3]; [16],>128 µg/mL
same,"Rescue concentration, Cip (0.25)",[3]; Cip at susceptible breakpoint 0.25 μg mL^−1,>128 µg/mL
same,"Rescue concentration, Dox (4)",[3]; [18],>128 µg/mL
same,"Rescue concentration, Gen (4)",[3]; [12],>128 µg/mL
same,"Rescue concentration, Imi (1)",[3]; [19],64 µg/mL
same,"Rescue concentration, Amox (8)",[4]; [9],>128 µg/mL
same,"Rescue concentration, Amp (8)",[4]; [16],>128 µg/mL
same,"Rescue concentration, Col (8)",[4]; [20],>128 µg/mL
same,"Rescue concentration, Imi (1)",[4]; [19],>128 µg/mL
same,"Rescue concentration, Mero (1)",[4]; Mero at susceptible breakpoint 1 μg mL^−1,>128 µg/mL
same,"Rescue concentration, Pol B (8)",[4]; Pol B at susceptible breakpoint 8 μg mL^−1,>128 µg/mL
same,"Rescue concentration, Amox (8)",[5]; [9],>128 µg/mL
same,"Rescue concentration, Amp (8)",[5]; [16],>128 µg/mL
same,"Rescue concentration, Aze (4)",[5]; Aze at susceptible breakpoint 4 μg mL^−1,>128 µg/mL
same,"Rescue concentration, Azi (16)",[5]; Azi at susceptible breakpoint 16 μg mL^−1,>128 µg/mL
same,"Rescue concentration, Cef (16)",[5]; Cef at susceptible breakpoint 16 μg mL^−1,>128 µg/mL
same,"Rescue concentration, Ceph (8)",[5]; [21],>128 µg/mL
same,"Rescue concentration, Chl (8)",[5]; [17],>128 µg/mL
same,"Rescue concentration, Col (8)",[5]; [20],>128 µg/mL
same,"Rescue concentration, Dox (4)",[5]; [18],>128 µg/mL
same,"Rescue concentration, Gen (4)",[5]; [12],>128 µg/mL
same,"Rescue concentration, Imi (1)",[5]; [19],>128 µg/mL
same,"Rescue concentration, Tet (4)",[5]; Tet at susceptible breakpoint 4 μg mL^−1,>128 µg/mL
same,"Rescue concentration, Amox (8)",[6]; [9],64 µg/mL
same,"Rescue concentration, Col (2)",[6]; [11],>128 µg/mL
same,"Rescue concentration, Gen (4)",[6]; [12],>128 µg/mL
same,"Rescue concentration, Imi (2)",[6]; [13],>128 µg/mL
same,"Rescue concentration, Mero (2)",[6]; [14],>128 µg/mL
same,"Rescue concentration, Pol B (2)",[6]; [15],>128 µg/mL
same,"Rescue concentration, Cef (8)",[7]; [10],>128 µg/mL
same,"Rescue concentration, Ceph (8)",[7]; [21],>128 µg/mL
same,"Rescue concentration, Chl (8)",[7]; [17],>128 µg/mL
same,"Rescue concentration, Cip (2)",[7]; Cip at susceptible breakpoint 2 μg mL^−1,>128 µg/mL
same,"Rescue concentration, Gen (4)",[7]; [12],>128 µg/mL
same,"Rescue concentration, Imi (2)",[7]; [13],>128 µg/mL
same,"Rescue concentration, Mero (2)",[7]; [14],>128 µg/mL
same,"Rescue concentration, Tri (2)",[7]; Tri at susceptible breakpoint 2 μg mL^−1,>128 µg/mL
same,"Rescue concentration, Amox (2)",[8]; Amox at susceptible breakpoint 2 μg mL^−1,>128 µg/mL
same,"Rescue concentration, Ery (0.25)",[8]; Ery at susceptible breakpoint 0.25 μg mL^−1,>128 µg/mL
same,"Rescue concentration, Imi (0.12)",[8]; Imi at susceptible breakpoint 0.12 μg mL^−1,>128 µg/mL
